Source: patent publication US20180193490A1, “Beta Amyloid Staging” (GE HEALTHCARE LIMITED, priority 2015, published 2018)

Molecular target: T1, beta amyloid (Aβ) plaques in the brain (Homo sapiens, UniProt P05067)
T1 construct: from tissue; host or cells: brain of living subjects (cortex and striatum), in vivo PET
Experiment: Provisional SUVR analysis of GE067-026 PET images (Cortex ID, cortex and striatal VOIs)
Format: in vivo
Details: for Cases C+S+ by SUVR analysis of cortical and striatal beta amyloid uptake / Cases C+S− by SUVR analysis of cortical and striatal beta amyloid uptake / Cases C−S+ by SUVR analysis of cortical and striatal beta amyloid uptake / Cases C−S− by SUVR analysis of cortical and striatal beta amyloid uptake: SUVRpons thresholds
Description: Some work has been performed to assess the quantitative SUVR measures from the GE067-026 cohort.
In an automated SUVR assessment methodology using GE software Cortex ID (J Lilja) PET images were quantitated using separate cortex and striatal VOIs. The SUVRs were determined for the cortical and striatal values using 3 different reference regions; whole cerebellum, cerebellar grey and pons.
Thresholding was determined by multiple methods to identify which method provided the greatest accuracy (See Setting SUVR thresholds)
The thresholds determined by ROC analysis for Phase 3 or above being abnormal gave the best sensitivity and specificity for cortical assessments. A similar approach gave the best sensitivity and specificity for the striatal assessments. Using the whole cerebellum as a reference region or pons as the reference region gave the best sensitivity and specificity (see Table 4).
Combining these thresholds to determine cortical and striatal positivity based upon SUVRpons values gave similar results to those see by BIE assessment. Of 5 C+S− cases 3 […] were Thal phase 3.
SUVR thresholds were set using two methods. • (1) Statistical determination • (2) Receiver operator characteristics
For statically determined thresholds the algorithm depicted in FIG. 1 was applied. Briefly, all cases were identified as negative or positive based on histopathology. For the cortex this was based on the GE067-026 standard of truth^2—abnormal or normal based on any regional Bielschowsky score>1.5=abnormal and all regional scores≤1.5=normal. For the striatum this was based on the identification of “Frequent” plaques by amyloid-β IHC (4G8). The threshold determinations are calculated in the file Cortex ID SUVR thresholds.xlsx. ^2 For the GE067-007 and -026 autopsy trials the primary endpoint was Bielschowsky silver stain (BSS) scores of CERAD based neuritic plaque density. 0=none, 1=sparse, 2=moderate and 3=frequent. Multiple measures were averaged and the arithmetic mean between none/sparse (normal) and moderate/frequent (abnormal=1.5. Any case with a regional BSS score>1.5 was deemed abnormal.
The SUVR means and standard deviations were calculated for normal and abnormal subjects for each of the SUVR measures; Cortex and striatum and for each of the SUVR reference regions. The threshold was determined to be the SUVR value at which the fractional standard deviation is equal between the two population means i.e. when the normal mean plus y times the normal SD is equal to the abnormal mean minus y times the abnormal SD.
A statistically based threshold was determined for abnormal and normal cases (based on histopathology) and applied to cortical and striatal SUVRs separately.
A variant of the above threshold was determined based upon the Thal phases. Thus the threshold for the cortex and striatum was determined between phase 0 and 1, between phase 1 and phase 2 . . . etc. This gave 15 threshold values (5 to discriminate each phase and 1 for each of the 3 reference regions; 15 in total)
This is an empirically determined threshold that by definition identifies the threshold that gives the best sensitivity and specificity.
Receiver operator characteristics analysis determines the sensitivity and specificity given a variable threshold. The most appropriate threshold is then determined by the maximum of the sum of the sensitivity and specificity.

T1 sequence (P05067 672-713 limits assumed): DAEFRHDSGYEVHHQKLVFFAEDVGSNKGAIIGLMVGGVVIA

Cases C+S+ by SUVR analysis of cortical and striatal beta amyloid uptake (Amyloid Thal phase 0): 0 | Cases C+S− by SUVR analysis of cortical and striatal beta amyloid uptake (Amyloid Thal phase 0): 0 | Cases C−S+ by SUVR analysis of cortical and striatal beta amyloid uptake (Amyloid Thal phase 0): 0 | Cases C−S− by SUVR analysis of cortical and striatal beta amyloid uptake (Amyloid Thal phase 0): 7 | Cases C+S+ by SUVR analysis of cortical and striatal beta amyloid uptake (Amyloid Thal phase 1): 0 | Cases C+S− by SUVR analysis of cortical and striatal beta amyloid uptake (Amyloid Thal phase 1): 0 | Cases C−S+ by SUVR analysis of cortical and striatal beta amyloid uptake (Amyloid Thal phase 1): 0 | Cases C−S− by SUVR analysis of cortical and striatal beta amyloid uptake (Amyloid Thal phase 1): 8 | Cases C+S+ by SUVR analysis of cortical and striatal beta amyloid uptake (Amyloid Thal phase 2): 0 | Cases C+S− by SUVR analysis of cortical and striatal beta amyloid uptake (Amyloid Thal phase 2): 0 | Cases C−S+ by SUVR analysis of cortical and striatal beta amyloid uptake (Amyloid Thal phase 2): 0 | Cases C−S− by SUVR analysis of cortical and striatal beta amyloid uptake (Amyloid Thal phase 2): 5 | Cases C+S+ by SUVR analysis of cortical and striatal beta amyloid uptake (Amyloid Thal phase 3): 1 | Cases C+S− by SUVR analysis of cortical and striatal beta amyloid uptake (Amyloid Thal phase 3): 3 | Cases C−S+ by SUVR analysis of cortical and striatal beta amyloid uptake (Amyloid Thal phase 3): 0 | Cases C−S− by SUVR analysis of cortical and striatal beta amyloid uptake (Amyloid Thal phase 3): 8 | Cases C+S+ by SUVR analysis of cortical and striatal beta amyloid uptake (Amyloid Thal phase 4): 16 | Cases C+S− by SUVR analysis of cortical and striatal beta amyloid uptake (Amyloid Thal phase 4): 1 | Cases C−S+ by SUVR analysis of cortical and striatal beta amyloid uptake (Amyloid Thal phase 4): 2 | Cases C−S− by SUVR analysis of cortical and striatal beta amyloid uptake (Amyloid Thal phase 4): 3 | Cases C+S+ by SUVR analysis of cortical and striatal beta amyloid uptake (Amyloid Thal phase 5): 44 | Cases C+S− by SUVR analysis of cortical and striatal beta amyloid uptake (Amyloid Thal phase 5): 1 | Cases C−S+ by SUVR analysis of cortical and striatal beta amyloid uptake (Amyloid Thal phase 5): 0 | Cases C−S− by SUVR analysis of cortical and striatal beta amyloid uptake (Amyloid Thal phase 5): 1 | Sum of sensitivity and specificity (Average over all thresholds, reference region Cer): 163% | Sum of sensitivity and specificity (Average over all thresholds, reference region Pons): 168% | Sum of sensitivity and specificity (Average over all thresholds, reference region Wcer): 168% | Phase 3 cases identified as C+S− between the two methods (BIE and SUVR) (BIE and SUVR combined): 6 | Sum of sensitivity and specificity (CTX BSS ROC abnormality threshold, Average of reference regions): 177% | Sum of sensitivity and specificity (CTX BSS ROC abnormality threshold, reference region Cer): 176% | Sum of sensitivity and specificity (CTX BSS ROC abnormality threshold, reference region Pons): 174% | Sum of sensitivity and specificity (CTX BSS ROC abnormality threshold, reference region Wcer): 180% | Sum of sensitivity and specificity (CTX Max Mirra ROC abnormality threshold, Average of reference regions): 170% | Sum of sensitivity and specificity (CTX Max Mirra ROC abnormality threshold, reference region Cer): 170% | Sum of sensitivity and specificity (CTX Max Mirra ROC abnormality threshold, reference region Pons): 167% | Sum of sensitivity and specificity (CTX Max Mirra ROC abnormality threshold, reference region Wcer): 173% | Sum of sensitivity and specificity (CTX Mirra mode ROC abnormality threshold, Average of reference regions): 172% | Sum of sensitivity and specificity (CTX Mirra mode ROC abnormality threshold, reference region Cer): 170% | Sum of sensitivity and specificity (CTX Mirra mode ROC abnormality threshold, reference region Pons): 173% | Sum of sensitivity and specificity (CTX Mirra mode ROC abnormality threshold, reference region Wcer): 174% | Sum of sensitivity and specificity (CTX Phase1 threshold, Average of reference regions): 139% | Sum of sensitivity and specificity (CTX Phase1 threshold, reference region Cer): 142% | Sum of sensitivity and specificity (CTX Phase1 threshold, reference region Pons): 129% | Sum of sensitivity and specificity (CTX Phase1 threshold, reference region Wcer): 145% | Sum of sensitivity and specificity (CTX Phase2 threshold, Average of reference regions): 155% | Sum of sensitivity and specificity (CTX Phase2 threshold, reference region Cer): 153% | Sum of sensitivity and specificity (CTX Phase2 threshold, reference region Pons): 158% | Sum of sensitivity and specificity (CTX Phase2 threshold, reference region Wcer): 152% | Sum of sensitivity and specificity (CTX Phase 3 + ROC abnormality threshold, Average of reference regions): 183% | Sum of sensitivity and specificity (CTX Phase 3 + ROC abnormality threshold, reference region Cer): 180% | Sum of sensitivity and specificity (CTX Phase 3 + ROC abnormality threshold, reference region Pons): 186% | Sum of sensitivity and specificity (CTX Phase 3 + ROC abnormality threshold, reference region Wcer): 182% | Sum of sensitivity and specificity (CTX Phase3 threshold, Average of reference regions): 161% | Sum of sensitivity and specificity (CTX Phase3 threshold, reference region Cer): 153% | Sum of sensitivity and specificity (CTX Phase3 threshold, reference region Pons): 166% | Sum of sensitivity and specificity (CTX Phase3 threshold, reference region Wcer): 166% | Sum of sensitivity and specificity (CTX Phase 4 + ROC abnormality threshold, Average of reference regions): 179% | Sum of sensitivity and specificity (CTX Phase 4 + ROC abnormality threshold, reference region Cer): 176% | Sum of sensitivity and specificity (CTX Phase 4 + ROC abnormality threshold, reference region Pons): 182% | Sum of sensitivity and specificity (CTX Phase 4 + ROC abnormality threshold, reference region Wcer): 180% | Sum of sensitivity and specificity (CTX Phase4 threshold, Average of reference regions): 177% | Sum of sensitivity and specificity (CTX Phase4 threshold, reference region Cer): 173% | Sum of sensitivity and specificity (CTX Phase4 threshold, reference region Pons): 179% | Sum of sensitivity and specificity (CTX Phase4 threshold, reference region Wcer): 179% | Sum of sensitivity and specificity (CTX Phase5 threshold, Average of reference regions): 136% | Sum of sensitivity and specificity (CTX Phase5 threshold, reference region Cer): 132% | Sum of sensitivity and specificity (CTX Phase5 threshold, reference region Pons): 142% | Sum of sensitivity and specificity (CTX Phase5 threshold, reference region Wcer): 133% | Sum of sensitivity and specificity (CTX abnormality statistical threshold, Average of reference regions): 176% | Sum of sensitivity and specificity (CTX abnormality statistical threshold, reference region Cer): 174% | Sum of sensitivity and specificity (CTX abnormality statistical threshold, reference region Pons): 175% | Sum of sensitivity and specificity (CTX abnormality statistical threshold, reference region Wcer): 180% | Sum of sensitivity and specificity (STR Phase1 threshold, Average of reference regions): 144% | Sum of sensitivity and specificity (STR Phase1 threshold, reference region Cer): 135% | Sum of sensitivity and specificity (STR Phase1 threshold, reference region Pons): 147% | Sum of sensitivity and specificity (STR Phase1 threshold, reference region Wcer): 150% | Sum of sensitivity and specificity (STR Phase2 threshold, Average of reference regions): 138% | Sum of sensitivity and specificity (STR Phase2 threshold, reference region Cer): 135% | Sum of sensitivity and specificity (STR Phase2 threshold, reference region Pons): 135% | Sum of sensitivity and specificity (STR Phase2 threshold, reference region Wcer): 144% | Sum of sensitivity and specificity (STR Phase3 threshold, Average of reference regions): 173% | Sum of sensitivity and specificity (STR Phase3 threshold, reference region Cer): 164% | Sum of sensitivity and specificity (STR Phase3 threshold, reference region Pons): 178% | Sum of sensitivity and specificity (STR Phase3 threshold, reference region Wcer): 179% | Sum of sensitivity and specificity (STR Phase4 threshold, Average of reference regions): 183% | Sum of sensitivity and specificity (STR Phase4 threshold, reference region Cer): 180% | Sum of sensitivity and specificity (STR Phase4 threshold, reference region Pons): 186% | Sum of sensitivity and specificity (STR Phase4 threshold, reference region Wcer): 183% | Sum of sensitivity and specificity (STR Phase5 threshold, Average of reference regions): 158% | Sum of sensitivity and specificity (STR Phase5 threshold, reference region Cer): 151% | Sum of sensitivity and specificity (STR Phase5 threshold, reference region Pons): 165% | Sum of sensitivity and specificity (STR Phase5 threshold, reference region Wcer): 157% | Sum of sensitivity and specificity (STR ROC abnormality threshold, Average of reference regions): 187% | Sum of sensitivity and specificity (STR ROC abnormality threshold, reference region Cer): 185% | Sum of sensitivity and specificity (STR ROC abnormality threshold, reference region Pons): 188% | Sum of sensitivity and specificity (STR ROC abnormality threshold, reference region Wcer): 187% | Sum of sensitivity and specificity (STR abnormality statistical threshold, Average of reference regions): 184% | Sum of sensitivity and specificity (STR abnormality statistical threshold, reference region Cer): 182% | Sum of sensitivity and specificity (STR abnormality statistical threshold, reference region Pons): 187% | Sum of sensitivity and specificity (STR abnormality statistical threshold, reference region Wcer): 185% | Share of C+S− cases that were Thal phase 3 (SUVRpons values): 66% | C+S− cases by SUVR thresholds (SUVRpons values, all Thal phases): 5 | Thal phase 3 C+S− cases by SUVR analysis in common with those identified by BIE assessment (of the 3 Thal phase 3 C+S− cases by SUVR): two
SMILES: CNc1ccc(-c2nc3ccc(O)cc3s2)cc1F [Flutemetamol]
